Values quoted from earlier work in patent US20240299384A1, “METHODS FOR TREATING PULMONARY HYPERTENSION IN PATIENTS WITH LEFT VENTRICULAR ASSIST DEVICE IMPLANTATION” (ACTELION PHARMACEUTICALS LTD, priority 2021, published 2024).

Columns and labels:
[1] = cited from earlier work
ET receptors = conditions: cited from earlier work

Structure (SMILES): NS(=O)(=O)Nc1ncnc(OCCOc2ncc(Br)cn2)c1-c1ccc(Br)cc1 [ACT-132577]
- time to peak plasma concentration ([1]; after the first dose of macitentan): about 30 hours
- half-life ([1]; humans): approximately 48 hours
- plasma concentrations relative to macitentan ([1]; humans): higher plasma concentrations
- affinity for the ET receptors relative to parent compound (ET receptors): lower affinity
